{"source": "patent US20070021397A1", "about": "“Neurocyte protective agent” (priority 2003, published 2007)", "key": {"[1]": {"system": "rat primary culture cerebral cortex neurons", "experiment": "OGD (oxygen glucose deprivation) test, LDH release", "assay_type": "cell-based", "conditions": "added 12 h before OGD; 0.1, 1.0, 10 μM (galantamine 1.0, 10, 100 μM); FIG. 3", "description": "After culturing for 7 days or more, cells were subjected to OGD treatment. […] As an indicator for neurocyte protection effect, ratio of LDH release inhibition was used. […] Therefore, when cells are injured by OGD, LDH flows out from inside of the cells into extracellular solution. In this solution, LDH is present depending on the degree of injury of the cells (cell death). The amount of LDH present in the solution can be determined by adding pyruvic acid and NADH to the solution and measuring the decreasing ratio of NADH with an absorption spectrometer.\nSubsequently, rat primary culture neurons were subjected to OGD treatment in the same manner as in the previous test.\nThen, their effects on LDH release induced by OGD treatment were tested."}, "[2]": {"system": "cultured rat septal area neurons", "experiment": "Aβ(1-40) toxicity, LDH leakage from cultured septal area neurons", "assay_type": "cell-based", "conditions": "siRNA 1 μmol/L added 24 h before and immediately before 15 μmol/L Aβ(1-40), 48 h; FIG. 12", "protocol": "Septal area neurons were prepared from embryos (18-day-old embryos) of Wistar rats (Charles River Japan). The septal region (including septal area and basal forebrain) was cut out from embryonic brain and incubated in Ca^2+/Mg^2+-free Hanks' balanced salt solution containing 0.25% trypsin and 0.2 mg/ml DNase I at 37° C. for 15 minutes. […] Cells were plated on 96-well poly-D-lysine-coated culture plates at a concentration of 1.2×10^5 cells/well. The plated cells were cultured in a CO2 incubator (5% CO2, 37° C.). After one day, ⅔ of the medium was exchanged for the above-described DMEM containing 5% fetal calf serum. After three days, ⅔ of the medium was exchanged again for the above-described DMEM containing 5% fetal calf serum. After 6 days, the entire medium was exchanged for the above-described DMEM (this time, Gln is not contained) not containing serum.\nAs an indicator for cytotoxicity, LDH (lactate dehydrogenase) was measured. […] Forty-eight hours after the addition of Aβ(1-40), lactate dehydrogenase (LDH) activity in the medium was measured. At the same time, cells were solubilized with phosphate buffer (pH 7.4) containing 0.5% Triton X-100, followed by measurement of LDH in cells. […] The data were analyzed by analysis techniques of ANOVA and Welch's test.\nLDH (lactate dehydrogenase) was measured as an indicator for cytotoxicity. […] The data were analyzed by ANOVA and Welch's test."}, "[3]": {"system": "rat primary culture neurons", "experiment": "OGD test, microscopic observation of cell morphology", "conditions": "added before OGD treatment; FIG. 2"}}}
{"compound": "CCN(C)C(=O)Oc1cccc([C@H](C)N(C)C)c1", "note": "[Rivastigmine]", "values": [{"measurement": "inhibition of LDH release (neurocyte protective effect) after OGD", "setting": "[1]", "result": "did not show any neurocyte protective effect"}]}
{"compound": "siRNA (i): double-stranded siRNA of acetylcholinesterase, SEQ ID NO: 1 and SEQ ID NO: 2 (chain 1 AAUGUCAGUGACUCUGUUUTT; chain 2 AAACAGAGUCACUGACAUUTT; chemistry not given here)", "values": [{"measurement": "protective effect against Aβ(1-40) toxicity (LDH)", "setting": "[2]", "result": "inhibit Aβ toxicity"}]}
{"compound": "COc1cc2c(cc1OC)C(=O)C(CC1CCN(Cc3ccccc3)CC1)C2.Cl", "note": "(stereo not shown) [Donepezil, 1-benzyl-4-[(5,6-dimethoxy-1-indanone)-2-yl]methylpiperidine]", "values": [{"measurement": "protection of neurons by cell morphology", "setting": "[3]", "result": "neurons were protected by the addition of donepezil before OGD treatment"}]}
{"compound": "siRNA (ii): double-stranded siRNA of acetylcholinesterase, SEQ ID NO: 3 and SEQ ID NO: 4 (chain 1 GCUGCCUCAAGAAAGUAUCTT; chain 2 GAUACUUUCUUGAGGCAGCTT; chemistry not given here)", "values": [{"measurement": "protective effect against Aβ(1-40) toxicity (LDH)", "setting": "[2]", "result": "inhibit Aβ toxicity"}]}
